# According to patent US20260284208A1, “SYSTEM” (Oxford University Innovation Limited, priority 2023, published 2026):
# System: library of 8,380 IKZF3 degrons (ZF-eGFP/mCherry reporter) in Jurkat cells
# Assay: Pooled library screen (FACS, NGS, limma voom LogFC of positive vs negative read counts)
# Assay type: cell-based, human
# Experimental: A library of 8,380 IKZF3 degrons was cloned into pLVX-Sprout to create the eGFP/mCherry protein degradation reporter plasmid pool. A lentivirus pool was then generated using the Lenti-X lentiviral vector production method.
# Jurkat cells were transduced at a multiplicity of infection of <0.3 with the lentivirus vector library in order to maximise the number of cells with a single integration. Transductions were carried out in 6 well TC-treated cell culture dishes (Falcon) with 3×10^6 cells per well. Cells were incubated for 2 days at 37° C. and 5% CO2 before the supernatant was removed and replaced with fresh media. 6 days post-transduction, mCherry+ cells were isolated via FACS using the FACS Aria Fusion (BD) in a buffer containing PBS (Gibco), 2 mM EDTA (Gibco), 25 mM HEPES (Sigma) and 1% BSA (Sigma). 8 days later, cells were treated with DMSO or a thalidomide analog for 18 hours at 37° C. and 5% CO2. mCherry+GFPlow and NOT(mCherry+GFPlow) cells were sorted by FACS using the FACS Aria Fusion (BD). DMSO treated cells were used to set the mCherry+GFPlow gate and dead cells were excluded from sorting by staining cells with 1 μg/mL DAPI (ThermoFisher). gDNA was isolated using the Maxwell RSC 48 (Promega). gDNA from cells that were unsorted and untreated were also isolated to determine the library representation on the day of compound treatment. Throughout the screen >600× coverage of the library was maintained. 3 biological replicates were carried out with a new transduction taking place each time.
# A two-step PCR was used where the first PCR (PCR1) amplified the integrated degron sequence from gDNA and the second PCR (PCR2) added Illumina adaptors and barcodes to permit multiplexing. See Supp F for PCR1 and PCR2 primers. Q5 Hot Start High-Fidelity 2× Master Mix (New England Biolabs) was used for both PCRs. Sufficient gDNA was amplified in PCR1 in order to maintain >600× coverage and amplicons were purified using solid phase reversible immobilization (SPRI) beads (Beckman Coulter). Purified PCR1 products were analysed on the Tapestation 4200 (Agilent) to confirm purity prior to proceeding to PCR2. Sufficient PCR1 product was amplified in PCR2 in order to maintain >600× coverage and amplicons were run on a 2% agarose TAE gel. Target bands were excised and purified using the NucleoSpin Gel and PCR Clean-up Kit (Machery Nagel). Amplicons were analysed on the Tapestation 4200 and quantified using Qubit dsDNA HS kit (ThermoFisher). PCR products were pooled and sequenced as paired-reads on the NovaSeq (Illumina) using a SP2 200 cycles kit (Illumina).
# Count distributions, percentage of read mapping, library coverage and replicate correlation per sample were assessed for QC purposes.
# To carry out the library screen, we used the same plasmid construct as in our earlier flow cytometry assays, but pooling all 8,380 mutants together into one Jurkat population, ensuring a copy number of one plasmid per cell (FIG. 4B). […] These GFP-negative cells were then separated from the remaining GFP-positive population using fluorescence activated cell sorting (FACS). These two populations were then sequenced and the relative abundance of every mutant in both populations compared to provide a log FC value for each mutant sequence. This value indicated how frequently a sequence is observed in the GFP-negative population relative to the GFP-positive population, and therefore how effective a degron it is for that particular IMID compound.
smiles,measurement,setting,value
"CC(C)(C)c1ccc2c(c1)C(=O)N(C1CCC(=O)NC1=O)C2=O (stereo not shown) [A63, 5-(tert-butyl)-2-(2,6-dioxopiperidin-3-yl)isoindoline-1,3-dione]",position of the WT sequence in the volcano plot of the library screen,WT ZF sequence,far away from the ‘hits’ region
same,"A63_logFC (Estimated LogFC Coefficient, positive vs negative read counts)","mutant degron: Degron-ID 214, SEQ ID NO 1763, 46F_47A_49P_50Q_52G_53A_54R_55F_67L",2.012
same,"A63_logFC (Estimated LogFC Coefficient, positive vs negative read counts)","mutant degron: Degron-ID 1093, SEQ ID NO 1762, 46F 47F_49N_50I_52G_53A 54Q 55F 67L",2.015
same,"A63_logFC (Estimated LogFC Coefficient, positive vs negative read counts)","mutant degron: Degron-ID 1448, SEQ ID NO 1767, 46F_47H_49D_50I_52G_53A_54K_55F_67L",2.005
same,"A63_logFC (Estimated LogFC Coefficient, positive vs negative read counts)","mutant degron: Degron-ID 1792, SEQ ID NO 1752, 46F 47I 49E_50V_52G_53A 54P 55F 67L",2.03
same,"A63_logFC (Estimated LogFC Coefficient, positive vs negative read counts)","mutant degron: Degron-ID 2032, SEQ ID NO 1761, 46F_47K_49E_50V_52G_53A_54P 55F 67L",2.016
same,"A63_logFC (Estimated LogFC Coefficient, positive vs negative read counts)","mutant degron: Degron-ID 2220, SEQ ID NO 1759, 46F_47L_49E_50I_52G_53A_54A_55F_67L",2.022
same,"A63_logFC (Estimated LogFC Coefficient, positive vs negative read counts)","mutant degron: Degron-ID 2352, SEQ ID NO 1758, 46F_47L_49P_50I_52G_53A 54P 55F_67L",2.022
same,"A63_logFC (Estimated LogFC Coefficient, positive vs negative read counts)","mutant degron: Degron-ID 2873, SEQ ID NO 1765, 46F_47N_49P_50V_52G_53A_54Q_55F_67L",2.01
same,"A63_logFC (Estimated LogFC Coefficient, positive vs negative read counts)","mutant degron: Degron-ID 2874, SEQ ID NO 1756, 46F_47N_49P_50V_52G_53A_54R_55F_67L",2.023
same,"A63_logFC (Estimated LogFC Coefficient, positive vs negative read counts)","mutant degron: Degron-ID 3479, SEQ ID NO 1750, 46F_47S_49E_50V_52G_53A_54Y_55F_67L",2.034
same,"A63_logFC (Estimated LogFC Coefficient, positive vs negative read counts)","mutant degron: Degron-ID 3732, SEQ ID NO 1751, 46F 47T 49N 50I 52G 53A 54P 55F 67L",2.034
same,"A63_logFC (Estimated LogFC Coefficient, positive vs negative read counts)","mutant degron: Degron-ID 4130, SEQ ID NO 1769, 46F_47W_49D_50V_52G_53A_54M_55F_67L",2.004
same,"A63_logFC (Estimated LogFC Coefficient, positive vs negative read counts)","mutant degron: Degron-ID 4210, SEQ ID NO 1753, 46F_47W_49N_50I_52G_53A_54M_55F 67L",2.029
same,"A63_logFC (Estimated LogFC Coefficient, positive vs negative read counts)","mutant degron: Degron-ID 4213, SEQ ID NO 1757, 46F_47W_49N_50I_52G_53A_54Q_55F_67L",2.023
same,"A63_logFC (Estimated LogFC Coefficient, positive vs negative read counts)","mutant degron: Degron-ID 6432, SEQ ID NO 1764, 46F_47W_49P_50I_52G_53R_54P_55F_67L",2.011
same,"A63_logFC (Estimated LogFC Coefficient, positive vs negative read counts)","mutant degron: Degron-ID 6552, SEQ ID NO 1755, 46L 47F_49P_50I_52G_53F_54P 55C 67L",2.023
same,"A63_logFC (Estimated LogFC Coefficient, positive vs negative read counts)","mutant degron: Degron-ID 6583, SEQ ID NO 1754, 46L_47H_49P_50I_52G_53F_54E_55C_67L",2.028
same,"A63_logFC (Estimated LogFC Coefficient, positive vs negative read counts)","mutant degron: Degron-ID 7601, SEQ ID NO 1760, 46L_47A_49E_50I_52G_53F_54C_55C_67L",2.006
same,"A63_logFC (Estimated LogFC Coefficient, positive vs negative read counts)","mutant degron: Degron-ID 7628, SEQ ID NO 1770, 46L_47C_49E_50I_52G_53F_54K_55C_67L",2.001
same,"A63_logFC (Estimated LogFC Coefficient, positive vs negative read counts)","mutant degron: Degron-ID 7865, SEQ ID NO 1760, 46L 47R_49E_50I_52G_53F_54G_55C_67L",2.019
same,"A63_logFC (Estimated LogFC Coefficient, positive vs negative read counts)","mutant degron: Degron-ID 7971, SEQ ID NO 1768, 46L_47Y_49E_50I_52G_53F_54N_55C_67L",2.005
